According to PubChem BioAssay AID330 (DTP/NCI, 2004):
“And” between values parts separate entries of the source, which are not always exact repeats. Identical values can stand only once. Inconclusive results and toxic doses are left out. How the source made its calls: active means survival T/C of 150% or more; inactive means T/C below 125% in these data. Peptide text beside a SMILES is read from it.

Test system: P388 leukemia ip, CD2F1 mice, survival T/C
Assay: NCI In Vivo Anticancer Drug Screen. Data for tumor model P388 Leukemia (intraperitoneal) in CD2F1 (CDF1) mice
Settings: endpoint: median survival time, higher = longer survival
Outline: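 Mice carrying the transplanted tumor received test compound or vehicle. Survival was recorded in each group, and the value is the treated-group measurement divided by that of the vehicle-treated control group.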

[1] = dose: 12.5 mg/kg/injection, schedule: Q01DX009 (ip), vehicle: saline
[2] = dose: 25.0 mg/kg/injection, schedule: Q01DX009 (ip), vehicle: saline
[3] = dose: 50.0 mg/kg/injection, schedule: Q01DX009 (ip), vehicle: saline
[4] = dose: 50.0 mg/kg/injection, schedule: Q01DX009 (ip), vehicle: saline with Tween-80
[5] = dose: 100.0 mg/kg/injection, schedule: Q01DX009 (ip), vehicle: saline with Tween-80
[6] = dose: 200.0 mg/kg/injection, schedule: Q01DX009 (ip), vehicle: saline with Tween-80
[7] = dose: 100.0 mg/kg/injection, schedule: Q01DX009 (ip), vehicle: saline
[8] = dose: 200.0 mg/kg/injection, schedule: Q01DX009 (ip), vehicle: saline
[9] = dose: 6.25 mg/kg/injection, schedule: Q01DX009 (ip), vehicle: saline with Tween-80

Measured: T/C

CCOC(=O)N1c2ccccc2C=CC1OCC (centres undefined)
inactive: dose: 6.0 mg/kg/injection, schedule: Q04DX003 (ip), vehicle: other 95 % of control | dose: 12.0 mg/kg/injection, schedule: Q04DX003 (ip), vehicle: other 100 % of control | dose: 25.0 mg/kg/injection, schedule: Q04DX003 (ip), vehicle: other 100 % of control

CCOC(=O)Cc1cc(O)c(C(=O)OCC)c(O)c1C(=O)OCC
inactive: dose: 100.0 mg/kg/injection, schedule: Q01DX001 (ip), vehicle: saline with Tween-80 105 % of control | dose: 200.0 mg/kg/injection, schedule: Q01DX001 (ip), vehicle: saline with Tween-80 105 % of control | dose: 400.0 mg/kg/injection, schedule: Q01DX001 (ip), vehicle: saline with Tween-80 99 % of control

CC(=O)OCC1=CC2OC(=O)C3=COC(OC4OC(CO)C(O)C(O)C4O)C1C32 (centres undefined)
inactive: [1] 93 % of control | dose: 25.0 mg/kg/injection, schedule: Q01DX009 (ip), vehicle: Klucel (hydroxypropylcellulose) (HPC) 88 % of control | [2] 98 % of control | dose: 50.0 mg/kg/injection, schedule: Q01DX009 (ip), vehicle: Klucel (hydroxypropylcellulose) (HPC) 88 % of control | [3] 98 % of control | dose: 50.0 mg/kg/injection, schedule: Q04DX002 (ip), vehicle: saline 107 % of control | dose: 100.0 mg/kg/injection, schedule: Q01DX009 (ip), vehicle: Klucel (hydroxypropylcellulose) (HPC) 89 % of control | dose: 100.0 mg/kg/injection, schedule: Q04DX002 (ip), vehicle: saline 101 % of control | dose: 200.0 mg/kg/injection, schedule: Q04DX002 (ip), vehicle: saline 99 % of control

CCC(C)C(NC(=O)C(Cc1c[nH]c2ccccc12)NC(=O)OC(C)(C)C)C(=O)OC (centres undefined)
inactive: dose: 12.5 mg/kg/injection, schedule: Q01DX009 (ip), vehicle: other 99 % of control | dose: 25.0 mg/kg/injection, schedule: Q01DX009 (ip), vehicle: other 104 % of control | dose: 50.0 mg/kg/injection, schedule: Q01DX009 (ip), vehicle: other 104 % of control | dose: 100.0 mg/kg/injection, schedule: Q01DX009 (ip), vehicle: other 106 % of control | dose: 200.0 mg/kg/injection, schedule: Q01DX009 (ip), vehicle: other 110 % of control

NCC(=O)NCC(=O)O (H-Gly-Gly-OH)
inactive: dose: 50.0 mg/kg/injection, schedule: Q01DX005 (ip), vehicle: saline 100 % of control | dose: 100.0 mg/kg/injection, schedule: Q01DX005 (ip), vehicle: saline 104 % of control | dose: 200.0 mg/kg/injection, schedule: Q01DX005 (ip), vehicle: saline 100 % of control

c1ccc(C[N+]23CCC(CC2)CC3)cc1
inactive: dose: 3.13 mg/kg/injection, schedule: Q04DX003 (ip), vehicle: saline 95 % of control | dose: 6.25 mg/kg/injection, schedule: Q04DX003 (ip), vehicle: saline 95 % of control | dose: 12.5 mg/kg/injection, schedule: Q04DX003 (ip), vehicle: saline 100 % of control

Cn1c(=O)[nH]c(=O)c2nc(-c3ccc(Cl)c(Cl)c3)cnc21
inactive: [4] 104 % of control | [5] 101 % of control | [6] 99 % of control

Brc1cccc(C(Nc2nncs2)Nc2nncs2)c1
inactive: dose: 50.0 mg/kg/injection, schedule: Q04DX002 (ip), vehicle: saline with Tween-80 91 % of control | dose: 100.0 mg/kg/injection, schedule: Q04DX002 (ip), vehicle: saline with Tween-80 92 % of control and 95 % of control | dose: 200.0 mg/kg/injection, schedule: Q04DX002 (ip), vehicle: saline with Tween-80 100 % of control and 111 % of control | dose: 400.0 mg/kg/injection, schedule: Q04DX002 (ip), vehicle: saline with Tween-80 124 % of control

COC(=O)C(C)CSc1ccccc1 (centres undefined)
inactive: dose: 60.0 mg/kg/injection, schedule: Q01DX005 (ip), vehicle: saline 99 % of control | dose: 120.0 mg/kg/injection, schedule: Q01DX005 (ip), vehicle: saline 107 % of control

FC(F)(F)c1cccc(NC(=S)SCc2ccc(Cl)c(Cl)c2)c1
inactive: [1] 95 % of control | [2] 89 % of control | [3] 90 % of control | dose: 50.0 mg/kg/injection, schedule: Q01DX009 (ip), vehicle: suspension in saline 89 % of control | [7] 90 % of control | [8] 100 % of control | dose: 200.0 mg/kg/injection, schedule: Q01DX009 (ip), vehicle: suspension in saline 97 % of control

CCOC(=O)CCC(=O)Nc1ccccc1C#N
inactive: [3] 102 % of control | [7] 93 % of control | [8] 102 % of control

COC(=O)C(O)NC(N)=O (centres undefined)
inactive: [4] 98 % of control | [5] 94 % of control | [6] 89 % of control

CCCCNC(=O)C(CONC(=O)OC)NC(C)=O (centres undefined)
inactive: dose: 50.0 mg/kg/injection, schedule: Q01DX005 (ip), vehicle: Klucel (hydroxypropylcellulose) (HPC) 101 % of control | dose: 100.0 mg/kg/injection, schedule: Q01DX005 (ip), vehicle: Klucel (hydroxypropylcellulose) (HPC) 97 % of control | dose: 200.0 mg/kg/injection, schedule: Q01DX005 (ip), vehicle: Klucel (hydroxypropylcellulose) (HPC) 101 % of control

CC1N=C(SCC(=O)c2ccc(F)cc2)N2C(C)N=C(SCC(=O)c3ccc(F)cc3)N12 (centres undefined)
inactive: [3] 111 % of control | [7] 111 % of control | [8] 98 % of control

O=C(Nc1ccc(Sc2ccc(N=Nc3c(O)c(S(=O)(=O)O)cc4cc(S(=O)(=O)O)ccc34)cc2)cc1)c1ccc(N=Nc2cc(S(=O)(=O)O)c3ccccc3c2O)cc1
inactive: dose: 50.0 mg/kg/injection, schedule: Q01DX005 (ip), vehicle: saline with Tween-80 98 % of control | dose: 100.0 mg/kg/injection, schedule: Q01DX005 (ip), vehicle: saline with Tween-80 102 % of control | dose: 200.0 mg/kg/injection, schedule: Q01DX005 (ip), vehicle: saline with Tween-80 98 % of control

CC(C)=CCCC(C)C1=C(O)C(=O)C(C)=CC1=O (centres undefined)
inactive: dose: 12.5 mg/kg/injection, schedule: Q01DX005 (ip), vehicle: Klucel (hydroxypropylcellulose) (HPC) 108 % of control

CC(C)(C)C1CC=CCC1 (centres undefined)
inactive: dose: 50.0 mg/kg/injection, schedule: Q01DX009 (ip), vehicle: saline sonified 109 % of control | dose: 100.0 mg/kg/injection, schedule: Q01DX009 (ip), vehicle: saline sonified 100 % of control

S=C(Oc1ccccc1)Oc1ccccc1
inactive: [9] 95 % of control | dose: 12.5 mg/kg/injection, schedule: Q01DX009 (ip), vehicle: saline with Tween-80 91 % of control | [5] 93 % of control

COC1c2ccccc2C=CN1C#N (centres undefined)
inactive: dose: 50.0 mg/kg/injection, schedule: Q01DX005 (ip), vehicle: distilled water + Tween-80 + alcohol 105 % of control | dose: 100.0 mg/kg/injection, schedule: Q01DX005 (ip), vehicle: distilled water + Tween-80 + alcohol 107 % of control

COC1=C(OC)C(=O)C(SC/C=C(\C)CCCC(C)CCCC(C)CCCC(C)C)=CC1=O (centres undefined)
inactive: [9] 105 % of control and 106 % of control and 113 % of control

Cc1ccc(OP(=O)(Oc2ccc(C)cc2)Oc2ccc(C)cc2)cc1.Cc1ccc(OP(=O)(Oc2ccc(C)cc2)Oc2ccc(C)cc2)cc1.Cc1ccc(OP(=O)(Oc2ccc(C)cc2)Oc2ccc(C)cc2)cc1.Cc1ccc(OP(=O)(Oc2ccc(C)cc2)Oc2ccc(C)cc2)cc1.[Co+2].[O-][Cl+3]([O-])([O-])O
inactive: dose: 100.0 mg/kg/injection, schedule: Q01DX001 (ip), vehicle: Klucel (hydroxypropylcellulose) (HPC) 99 % of control | dose: 200.0 mg/kg/injection, schedule: Q01DX001 (ip), vehicle: Klucel (hydroxypropylcellulose) (HPC) 97 % of control | dose: 400.0 mg/kg/injection, schedule: Q01DX001 (ip), vehicle: Klucel (hydroxypropylcellulose) (HPC) 97 % of control
